Values of other authors, collected in patent publication US6465677B1, “Method for the preparation of N-neohexyl-α-aspartyl-L-phenylalanine methyl ester from imidazolidin-4-one intermediates” (The NutraSweet Company, priority 1998, dated 2002).

Details: on a weight basis

## COC(=O)[C@H](Cc1ccccc1)NC(=O)[C@H](CC(=O)O)NCCC(C)(C)C [neotame, N-[N-(3,3-dimethylbutyl)-L-α-aspartyl]-L-phenylalanine 1-methyl ester]
  sweetness relative to sucrose: approximately 8,000 times as sweet as sucrose
